Legend:
Assay type in all cases: biochemical
[1] = target: KAT6A Full length enzyme (Homo sapiens (Human), UniProt Q92794); experiment: KAT6A assay (SAMDI-MS acetylation of H3 1-21 peptide); details: Morrison equation fit; replicate number in parentheses; read-out: KAT6A Ki (nM) (replicate number)
[2] = target: KAT7+BRPF1+EAF6+ING5 4 protein complex (Homo sapiens (Human), UniProt O95251); experiment: KAT7 BRPF1 assay (SAMDI-MS acetylation of H3 1-21 peptide); details: Morrison equation fit; replicate number in parentheses
[3] = target: KAT7+BRPF2+EAF6+ING5 4 protein complex (Homo sapiens (Human), UniProt O95251); experiment: KAT7 BRPF2 assay (SAMDI-MS acetylation of H3 1-21 peptide); details: Morrison equation fit; replicate number in parentheses; read-out: KAT7 BRPF2 Ki (nM) (replicate number)
[4] = target: KAT7+JADE1+EAF6+ING5 4 protein complex (Homo sapiens (Human), UniProt O95251); experiment: KAT7 JADE1 assay (SAMDI-MS acetylation of H3 1-21 peptide); details: Morrison equation fit; replicate number in parentheses; read-out: KAT7 JADE1 Ki (nM) (replicate number)
[5] = target: KAT8 Full length enzyme (Homo sapiens (Human), UniProt Q9H7Z6); experiment: KAT8 assay (SAMDI-MS acetylation of H3 1-21 peptide); details: Morrison equation fit; replicate number in parentheses; read-out: KAT8 Ki (nM) (replicate number)
KAT8 Full length enzyme, sequence (Q9H7Z6 whole entry): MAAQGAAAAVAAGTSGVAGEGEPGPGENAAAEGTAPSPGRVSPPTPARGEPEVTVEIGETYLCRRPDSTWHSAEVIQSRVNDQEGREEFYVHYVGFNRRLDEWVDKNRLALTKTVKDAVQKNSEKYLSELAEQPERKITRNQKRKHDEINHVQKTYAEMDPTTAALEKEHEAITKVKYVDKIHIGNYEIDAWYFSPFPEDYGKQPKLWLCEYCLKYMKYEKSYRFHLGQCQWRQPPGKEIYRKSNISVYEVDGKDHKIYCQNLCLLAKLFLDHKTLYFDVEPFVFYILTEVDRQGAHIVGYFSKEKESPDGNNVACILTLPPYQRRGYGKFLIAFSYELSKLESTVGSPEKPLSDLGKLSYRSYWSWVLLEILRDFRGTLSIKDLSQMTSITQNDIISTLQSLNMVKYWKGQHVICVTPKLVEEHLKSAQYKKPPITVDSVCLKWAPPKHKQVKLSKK

[6] = target: KAT5 Full length enzyme (Homo sapiens (Human), UniProt Q92993); experiment: KAT5 assay (SAMDI-MS acetylation of H4 1-21 peptide); details: Morrison equation fit; replicate number in parentheses; read-out: KAT5 Ki (nM) (replicate number)
KAT5 Full length enzyme, sequence (Q92993 whole entry): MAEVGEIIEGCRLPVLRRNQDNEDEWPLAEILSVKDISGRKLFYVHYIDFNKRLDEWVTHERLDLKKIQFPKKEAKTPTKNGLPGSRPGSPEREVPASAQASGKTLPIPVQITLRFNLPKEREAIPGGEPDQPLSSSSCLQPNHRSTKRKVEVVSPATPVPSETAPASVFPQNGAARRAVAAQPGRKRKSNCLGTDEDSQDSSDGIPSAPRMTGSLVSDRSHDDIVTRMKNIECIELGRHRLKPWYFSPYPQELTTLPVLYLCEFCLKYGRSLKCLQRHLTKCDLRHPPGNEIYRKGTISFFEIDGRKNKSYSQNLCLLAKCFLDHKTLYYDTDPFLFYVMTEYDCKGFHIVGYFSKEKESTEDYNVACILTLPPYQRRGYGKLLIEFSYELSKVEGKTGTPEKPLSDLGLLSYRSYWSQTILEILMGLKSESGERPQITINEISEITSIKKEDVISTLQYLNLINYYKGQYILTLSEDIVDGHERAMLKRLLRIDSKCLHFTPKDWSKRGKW

KAT6A Full length enzyme, sequence (Q92794 other isoform, or with tags, fused parts or gaps): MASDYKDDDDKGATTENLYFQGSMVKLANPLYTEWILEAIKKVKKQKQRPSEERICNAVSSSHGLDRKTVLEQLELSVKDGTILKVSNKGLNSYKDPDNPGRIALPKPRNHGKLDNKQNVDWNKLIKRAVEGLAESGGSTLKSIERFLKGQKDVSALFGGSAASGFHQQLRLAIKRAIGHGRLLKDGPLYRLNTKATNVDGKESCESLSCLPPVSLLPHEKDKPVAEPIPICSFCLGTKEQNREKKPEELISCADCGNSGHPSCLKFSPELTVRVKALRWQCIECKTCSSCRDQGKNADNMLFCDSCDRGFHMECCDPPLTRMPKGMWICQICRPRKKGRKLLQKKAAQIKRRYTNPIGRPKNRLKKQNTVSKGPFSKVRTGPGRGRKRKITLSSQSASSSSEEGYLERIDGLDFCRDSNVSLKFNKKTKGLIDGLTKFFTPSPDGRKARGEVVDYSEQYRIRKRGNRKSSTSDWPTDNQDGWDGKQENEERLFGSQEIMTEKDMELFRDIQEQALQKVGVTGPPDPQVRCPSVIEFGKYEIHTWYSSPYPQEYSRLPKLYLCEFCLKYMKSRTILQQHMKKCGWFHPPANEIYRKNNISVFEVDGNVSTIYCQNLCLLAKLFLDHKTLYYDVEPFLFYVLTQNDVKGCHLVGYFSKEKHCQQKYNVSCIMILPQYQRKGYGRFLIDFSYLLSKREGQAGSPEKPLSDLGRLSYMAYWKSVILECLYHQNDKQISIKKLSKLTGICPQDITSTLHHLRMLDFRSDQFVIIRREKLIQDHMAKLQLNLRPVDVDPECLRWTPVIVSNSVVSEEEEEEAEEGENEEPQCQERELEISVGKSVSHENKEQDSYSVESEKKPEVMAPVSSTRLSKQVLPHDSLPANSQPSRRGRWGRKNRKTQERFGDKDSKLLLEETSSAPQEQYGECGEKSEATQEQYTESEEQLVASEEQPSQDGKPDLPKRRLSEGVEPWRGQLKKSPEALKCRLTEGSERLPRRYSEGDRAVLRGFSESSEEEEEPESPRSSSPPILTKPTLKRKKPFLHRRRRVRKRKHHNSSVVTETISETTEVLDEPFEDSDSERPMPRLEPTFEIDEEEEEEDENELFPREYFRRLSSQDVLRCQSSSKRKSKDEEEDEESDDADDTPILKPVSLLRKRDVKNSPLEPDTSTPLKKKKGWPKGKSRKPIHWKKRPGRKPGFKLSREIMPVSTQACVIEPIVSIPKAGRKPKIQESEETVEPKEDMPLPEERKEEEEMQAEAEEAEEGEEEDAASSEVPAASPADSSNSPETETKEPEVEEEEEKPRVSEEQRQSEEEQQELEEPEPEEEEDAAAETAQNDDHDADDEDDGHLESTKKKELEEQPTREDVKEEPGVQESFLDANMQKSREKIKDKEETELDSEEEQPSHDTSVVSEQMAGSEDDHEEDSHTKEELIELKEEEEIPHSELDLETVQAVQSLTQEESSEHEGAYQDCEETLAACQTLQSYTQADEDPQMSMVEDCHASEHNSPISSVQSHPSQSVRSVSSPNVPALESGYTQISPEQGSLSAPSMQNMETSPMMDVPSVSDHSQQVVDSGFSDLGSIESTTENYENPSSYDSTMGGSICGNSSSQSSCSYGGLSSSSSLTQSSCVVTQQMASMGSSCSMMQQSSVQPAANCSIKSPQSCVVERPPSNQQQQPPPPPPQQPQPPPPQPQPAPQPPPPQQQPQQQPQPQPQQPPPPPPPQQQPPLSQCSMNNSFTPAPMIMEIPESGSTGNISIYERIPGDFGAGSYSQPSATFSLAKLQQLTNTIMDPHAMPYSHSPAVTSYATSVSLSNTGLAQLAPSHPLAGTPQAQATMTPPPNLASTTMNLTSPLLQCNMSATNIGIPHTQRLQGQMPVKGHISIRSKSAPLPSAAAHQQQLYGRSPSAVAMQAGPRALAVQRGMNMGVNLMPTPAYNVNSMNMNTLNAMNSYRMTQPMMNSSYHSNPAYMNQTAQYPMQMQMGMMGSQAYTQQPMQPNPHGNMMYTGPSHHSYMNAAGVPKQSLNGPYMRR

SMILES | Ki [1] [nM] | Ki [2] [nM] | Ki [3] [nM] | Ki [4] [nM] | Ki [5] [nM] | Ki [6] [nM]
CCn1cnc(Nc2cc3onc(NS(=O)(=O)c4c(OC)cccc4OC)c3cc2OC)n1 [Example 41, N-{6-[(1-ethyl-1H-1,2,4-triazol-3-yl)amino]-5-methoxy-1,2-benzoxazol-3-yl}-2,6-dimethoxybenzene-1-sulfonamide] | 6 | 25.6 | 94.2 | 359 | > 16300 | 3390
CCn1cc(Nc2cc3onc(NS(=O)(=O)c4c(OC)cccc4OC)c3cc2OC)nn1 [Example 42, N-{6-[(1-ethyl-1H-1,2,3-triazol-4-yl)amino]-5-methoxy-1,2-benzoxazol-3-yl}-2,6-dimethoxybenzene-1-sulfonamide] | 10.7 | 26.7 | 30.8 | 316 | > 16300 | 7120
COc1cc(Nc2cc3onc(NS(=O)(=O)c4c(OC)cccc4OC)c3cc2OC)n[nH]1 [Example 44, 2,6-dimethoxy-N-{5-methoxy-6-[(5-methoxy-1H-pyrazol-3-yl)amino]-1,2-benzoxazol-3-yl}benzene-1-sulfonamide] | 3.4 | 9.8 | 16.2 | 48.2 | > 16300 | 1000
COc1cc2c(NS(=O)(=O)c3c(OC)cccc3OC)noc2cc1Nc1cc(C2CC2)n[nH]1 [Example 47, N-{6-[(3-cyclopropyl-1H-pyrazol-5-yl)amino]-5-methoxy-1,2-benzoxazol-3-yl}-2,6-dimethoxybenzene-1-sulfonamide] | 0.8 | 1.9 | 2.2 | 5 | 1220 | 131
COc1cc2c(NS(=O)(=O)c3c(OC)cccc3OC)noc2cc1Nc1cc(C(C)C)n[nH]1 [Example 50, 2,6-dimethoxy-N-(5-methoxy-6-{[3-(propan-2-yl)-1H-pyrazol-5-yl]amino}-1,2-benzoxazol-3-yl)benzene-1-sulfonamide] | 4.5 | 28.4 | 22.8 | 113 | 709 | 634
COc1cc2c(NS(=O)(=O)c3c(OC)cccc3OC)noc2cc1Nc1cc(C2CCNCC2)n[nH]1 [Example 56, 2,6-dimethoxy-N-(5-methoxy-6-{[3-(piperidin-4-yl)-1H-pyrazol-5-yl]amino}-1,2-benzoxazol-3-yl)benzene-1-sulfonamide] | 3 | 157 | 512 | 594 | 7220 | 22200
COc1cc2c(NS(=O)(=O)c3ccc(C)cc3OCC(F)F)noc2cc1Nc1cc(C(C)C)[nH]n1 [Example 62, 2-(2,2-difluoroethoxy)-N-(5-methoxy-6-{[5-(propan-2-yl)-1H-pyrazol-3-yl]amino}-1,2-benzoxazol-3-yl)-4-methylbenzene-1-sulfonamide] | 4.9 | 38.1 | 35.3 | 191 | 5340 | 750
CCOc1ccccc1S(=O)(=O)Nc1noc2cc(Nc3cc(C(C)C)[nH]n3)c(OC)cc12 [Example 63, 2-ethoxy-N-(5-methoxy-6-{[5-(propan-2-yl)-1H-pyrazol-3-yl]amino}-1,2-benzoxazol-3-yl)benzene-1-sulfonamide] | 10.2 | 54.8 | 76.2 | 203 | 13000 | 436
COc1cc2c(NS(=O)(=O)c3ccc(C)cc3OCC(F)F)noc2cc1Nc1cc[nH]n1 [Example 64, 2-(2,2-difluoroethoxy)-N-{5-methoxy-6-[(1H-pyrazol-3-yl)amino]-1,2-benzoxazol-3-yl}-4-methylbenzene-1-sulfonamide] | 0.2 | 146 | 144 | 136 | 550 | 48.1
COc1cc2c(NS(=O)(=O)c3ccccc3OC)noc2cc1Nc1cc(C(C)C)[nH]n1 [Example 65, 2-methoxy-N-(5-methoxy-6-{[5-(propan-2-yl)-1H-pyrazol-3-yl]amino}-1,2-benzoxazol-3-yl)benzene-1-sulfonamide] | 8.6 | 57.4 | 85.4 | 206 | > 13000 | 1280
CCOc1cc(C)c(F)cc1S(=O)(=O)Nc1noc2cc(Nc3cc[nH]n3)c(OC)cc12 [Example 77, 2-ethoxy-5-fluoro-N-{5-methoxy-6-[(1H-pyrazol-3-yl)amino]-1,2-benzoxazol-3-yl}-4-methylbenzene-1-sulfonamide] | 0.6 | 76.1 | 162 | 213 | 2760 | 243
CCOc1cc(C)ccc1S(=O)(=O)Nc1noc2cc(Nc3cc(C(C)C)[nH]n3)c(OC)cc12 [Example 78, 2-ethoxy-N-(5-methoxy-6-{[5-(propan-2-yl)-1H-pyrazol-3-yl]amino}-1,2-benzoxazol-3-yl)-4-methylbenzene-1-sulfonamide] | 2.5 | 40.2 | 54.4 | 109 | 8730 | 354
CCOc1cc(C)c(F)cc1S(=O)(=O)Nc1noc2cc(Nc3cc(C(C)C)[nH]n3)c(OC)cc12 [Example 79, 2-ethoxy-5-fluoro-N-(5-methoxy-6-{[5-(propan-2-yl)-1H-pyrazol-3-yl]amino}-1,2-benzoxazol-3-yl)-4-methylbenzene-1-sulfonamide] | 5.1 | 25.2 | 26.5 | 119 | 6570 | 692
COc1cc2c(NS(=O)(=O)c3cc4c(cc3OC)CCCC4)noc2cc1Nc1cc(C)n[nH]1 [Example 82, 3-methoxy-N-{5-methoxy-6-[(3-methyl-1H-pyrazol-5-yl)amino]-1,2-benzoxazol-3-yl}-5,6,7,8-tetrahydronaphthalene-2-sulfonamide] | 0.1 | 7.5 | 18.3 | 31.8 | 467 | 33.8
COc1cc2c(NS(=O)(=O)c3c(OC)cccc3OC)noc2cc1Nc1cc(C)n[nH]1 [Example 84, 2,6-dimethoxy-N-{5-methoxy-6-[(3-methyl-1H-pyrazol-5-yl)amino]-1,2-benzoxazol-3-yl}benzene-1-sulfonamide] | 0.2 | 12.2 | 10.1 | 50.6 | 2970 | 82.3
COc1cc2c(NS(=O)(=O)c3c(OC)cc([C@H]4COCCO4)cc3OC)noc2cc1Nc1cc(C2CC2)[nH]n1 [Example 146] | 0.9 | 2.4 | 1.7 | 3.2 | 865 | 31.4

Reference: patent US20250122183A1 (Pfizer Inc., priority 2023, published 2025)
